According to US12410207B2, “Galactoside inhibitor of galectins” (GALECTO BIOTECH AB, priority 2019, dated 2025):
pKd: −log10 of the molar value.

Tests used:
[1] = molecular target: Galectin-3 (Homo sapiens, UniProt P17931); assay: Fluorescence anisotropy assay, inhibition of galectin / fluorescein tagged saccharide probe interaction; details: compound as inhibitor of probe binding
Description: (§1) The affinity of Example 1-45 for galectins were determined by a fluorescence anisotropy assay where the compound was used as an inhibitor of the interaction between galectin and a fluorescein tagged saccharide probe as described Sörme, P., Kahl-Knutsson, B., Huflejt, M., Nilsson, U. J., and Leffler H. (2004) Fluorescence polarization as an analytical tool to evaluate galectin-ligand interactions. Anal. Biochem. 334: 36-47, (Sorme et al., 2004) and Monovalent interactions of Galectin-1 By Salomonsson, Emma; Larumbe, Amaia; Tejler, Johan; Tullberg, Erik; Rydberg, Hanna; Sundin, Anders; Khabut, Areej; Frejd, Torbjorn; Lobsanov, Yuri D.; Rini, James M.; et al, From Biochemistry (2010), 49(44), 9518-9532, (Salomonsson et al., 2010).

[2] = molecular target: Galectin-1 (Homo sapiens, UniProt P09382); assay: as above; details: compound as inhibitor of probe binding
Chain of Galectin-1 (P09382 whole entry, species assumed): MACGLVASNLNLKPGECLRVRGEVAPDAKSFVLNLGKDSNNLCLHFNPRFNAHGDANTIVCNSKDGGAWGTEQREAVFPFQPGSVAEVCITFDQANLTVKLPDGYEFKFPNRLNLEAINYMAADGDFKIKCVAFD
Description: as §1

Chain of Galectin-3 (P17931 whole entry, species assumed): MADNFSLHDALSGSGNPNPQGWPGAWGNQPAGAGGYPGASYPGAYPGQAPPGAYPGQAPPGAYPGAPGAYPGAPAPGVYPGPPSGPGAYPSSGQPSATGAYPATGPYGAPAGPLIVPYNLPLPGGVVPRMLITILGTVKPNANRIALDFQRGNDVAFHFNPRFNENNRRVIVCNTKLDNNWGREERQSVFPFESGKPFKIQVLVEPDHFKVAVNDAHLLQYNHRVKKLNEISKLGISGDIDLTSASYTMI

Row | pKd [1] | pKd [2] | SMILES
1 | 7.82 | 5.17 | O=C(c1ccc(Cl)cc1S[C@H]1OC(CO)[C@H](O)C(n2cc(-c3cc(F)c(F)c(F)c3)cn2)C1O)N1CCC1 (stereo partly drawn) [Example 10, 2-(N-azetidinyl-carbonyl)-5-chlorophenyl 3-deoxy-3-[4-(3,4,5-trifluorophenyl)-1H-1,2-pyrazol-1-yl]-1-thio-α-D-galactopyranoside]
2 | 7.62 | 5.01 | N#Cc1ccc(Cl)cc1S[C@H]1OC(CO)[C@H](O)C(n2cc(-c3cc(F)c(F)c(F)c3)cn2)C1O (stereo partly drawn) [Example 11, 5-Chloro-2-cyanophenyl 3-deoxy-3-[4-(3,4,5-trifluorophenyl)-1H-1,2-pyrazol-1-yl]-1-thio-α-D-galactopyranoside]
3 | 7.85 | 4.47 | N#Cc1ncc(Cl)cc1S[C@H]1OC(CO)[C@H](O)C(n2cc(-c3cc(F)c(Cl)c(F)c3)cn2)C1O (stereo partly drawn) [Example 13, 5-Chloro-2-cyanopyridin-3-yl 3-[4-(4-chloro-3,5-difluorophenyl)-1H-1,2-pyrazol-1-yl]-3-deoxy-1-thio-α-D-galactopyranoside]
4 | 7.10 | 4.29 | Cc1cnc(C#N)c(S[C@H]2OC(CO)[C@H](O)C(n3cc(-c4cc(F)c(F)c(F)c4)cn3)C2O)c1 (stereo partly drawn) [Example 14]
5 | 7.68 | 4.90 | C#Cc1cnc(C#N)c(S[C@H]2OC(CO)[C@H](O)C(n3cc(-c4cc(F)c(F)c(F)c4)cn3)C2O)c1 (stereo partly drawn) [Example 16, 2-Cyano-5-ethynylpyridin-3-yl 3-deoxy-3-[4-(3,4,5-trifluorophenyl)-1H-1,2-pyrazol-1-yl]-1-thio-α-D-galactopyranoside]
6 | 6.16 | 4.91 | OCC1O[C@H](Sc2cncc(Cl)c2)C(O)C(n2cc(-c3cccc(F)n3)cn2)[C@H]1O (stereo partly drawn) [Example 18, 5-Chloropyridin-3-yl 3-deoxy-3-[4-(6-fluoropyridin-2-yl)-1H-1,2-pyrazol-1-yl]-1-thio-α-D-galactopyranoside]

Continued, molecule first:

Row | SMILES | pKd [1] | pKd [2]
7 | OCC1O[C@H](Sc2cccc(Cl)c2)C(O)C(n2cc(-c3cccc(F)c3)cn2)[C@H]1O (stereo partly drawn) [Example 1, 3-Chlorophenyl 3-deoxy-3-[4-(3-fluorophenyl)-1H-1,2-pyrazol-1-yl]-1-thio-α-D-galactopyranoside] | 6.57 | 4.70
8 | Cc1c(F)cc(-c2cnn(C3C(O)[C@@H](Sc4cncc(Cl)c4)OC(CO)[C@@H]3O)c2)cc1F (stereo partly drawn) [Example 4, 5-Chloropyridin-3-yl 3-deoxy-3-[4-(3,5-difluoro-4-methylphenyl)-1H-1,2-pyrazol-1-yl]-1-thio-α-D-galactopyranoside] | 8.05 | 4.37
9 | OCC1O[C@H](Sc2cncc(Br)c2)C(O)C(n2cc(-c3cc(F)c(F)c(F)c3)cn2)[C@H]1O (stereo partly drawn) [Example 5, 5-Bromopyridin-3-yl 3-deoxy-3-[4-(3,4,5-trifluorophenyl)-1H-1,2-pyrazol-1-yl]-1-thio-α-D-galactopyranoside] | 7.60 | 4.83
10 | C#Cc1cncc(S[C@H]2OC(CO)[C@H](O)C(n3cc(-c4cc(F)c(Cl)c(F)c4)cn3)C2O)c1 (stereo partly drawn) [Example 7, 5-Ethynylpyridin-3-yl 3-[4-(4-chloro-3,5-difluorophenyl)-1H-1,2-pyrazol-1-yl]-3-deoxy-1-thio-α-D-galactopyranoside] | 7.85 | 4.52
11 | N#Cc1ccc(Cl)cc1S[C@H]1OC(CO)[C@H](O)C(n2cc(-c3cc(F)c(Cl)c(F)c3)cn2)C1O (stereo partly drawn) [Example 8, 5-Chloro-2-cyanophenyl 3-[4-(4-chloro-3,5-difluorophenyl)-1H-1,2-pyrazol-1-yl]-3-deoxy-1-thio-α-D-galactopyranoside] | 7.70 | 4.32
12 | O=C(c1ccc(Cl)cc1S[C@H]1OC(CO)[C@H](O)C(n2cc(-c3cc(F)c(Cl)c(F)c3)cn2)C1O)N1CCC1 (stereo partly drawn) [Example 9, 2-(N-azetidinyl-carbonyl)-5-chlorophenyl 3-[4-(4-chloro-3,5-difluorophenyl)-1H-1,2-pyrazol-1-yl]-3-deoxy-1-thio-α-D-galactopyranoside] | 7.92 | 4.72
